Results: US6506789B2, “Methods for the treatment of itching comprising administering PGD2 receptor antagonist” (Shionogi & Co., Ltd., priority 1998, dated 2003)
Marks after values point to notes of the source that are not given here.

Assays:
PGD2 receptor = molecular target: T1, PGD2 receptor (Homo sapiens, UniProt Q13258); assay: Binding to PGD2 receptor ([3H]PGD2, human platelet membrane fraction); conditions: 5 nM [3H]PGD2, 4° C., 90 min, read-out: IC50 (concentration required for 50% inhibition of [3H]PGD2 binding)
T1 construct: The platelets mere homogenized using a homogenizer (Ultra-Turrax) followed by centrifugation 3 times at 20,000 rpm, 10 min at 4° C. to obtain a platelet membrane fraction; from tissue; host or cells: human platelets from venous blood of healthy volunteers (membrane fraction)
T1 sequence (Q13258 1-359): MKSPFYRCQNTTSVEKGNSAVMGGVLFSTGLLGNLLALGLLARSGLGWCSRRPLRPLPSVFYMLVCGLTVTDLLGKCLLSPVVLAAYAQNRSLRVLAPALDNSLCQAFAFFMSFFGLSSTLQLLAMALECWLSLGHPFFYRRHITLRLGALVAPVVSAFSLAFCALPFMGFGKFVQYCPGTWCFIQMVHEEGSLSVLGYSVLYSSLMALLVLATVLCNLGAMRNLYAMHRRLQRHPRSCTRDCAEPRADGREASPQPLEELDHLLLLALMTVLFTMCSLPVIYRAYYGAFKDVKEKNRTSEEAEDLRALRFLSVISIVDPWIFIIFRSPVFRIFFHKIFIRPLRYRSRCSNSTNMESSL
Method: (1) Preparation of Human Platelet Membrane Fraction
Blood sample was obtained using a plastic syringe containing 3.8% sodium citrate from the vein of healthy volunteers (adult male and female), put into a plastic test tube and mixed gently by rotation. The sample was then centrifuged at 1800 rpm, 10 min at room temperature and the supernatant containing PRP (platelet-rich plasma) was collected. The PRP was re-centrifuged at 2300 rpm, 22 min at room temperature to obtain platelets. The platelets mere homogenized using a homogenizer (Ultra-Turrax) followed by centrifugation 3 times at 20,000 rpm, 10 min at 4° C. to obtain a platelet membrane fraction. After protein determination, the membrane fraction was adjusted to 2 mg/ml and preserved in a refrigerator at −80° C. until use.
(2) Binding to PGD2 Receptor
To a binding-reaction solution (50 mM Tris/HCl, pH 7.4, 5 mM MgCl2) (0.2 ml) were added the human platelet membrane fraction (0.1 mg) and 5 nM [^3H]PGD2 (115 Ci/mmol). After reacting at 4° C. for 90 min, the mixture was filtered through a glass fiber filter paper and washed several times with cooled saline, to measure the radioactivity retained on the filter paper. The specific binding was calculated by subtracting the non-specific binding (the binding in the presence of 10 μM PGD2) from the total binding. The inhibitory activity of each compound was expressed as the concentration required for 50% inhibition (IC50), which was determined by depicting a substitution curve by plotting the binding ratio (%) in the presence of each compound, where the binding ratio in the absence of a test compound is 100%.

PGD2-induced itching = conditions: guinea pig; J. Pharmacol. Exp. Ther., 279, 137-142, 1996; cited from earlier work
[1] = system: itching caused by antigens; conditions: J. Pharmacol. Exp. Ther., 279, 137-142, 1996; cited from earlier work
[2] = system: Compound 48/80-induced scratching behavior; assay: Mouse pruritus model: compound 48/80-induced scratching behavior; type: in vivo
Method: Investigation on Itch-Related Scratching Behavior in Mouse Pruritus Model: Effect on Compound 48/80-Induced Scratching Behavior Compound 48/80 (10 μg/site, Sigma), a non-immunological mast cell activator, was dissolved in physiological saline and subcutaneously injected into the rostral part of the back of female C57BL mice (8-12 weeks of age, Charles River Japan Inc.). […] Mice usually scratched several times successively in one behavior and a series of scratching was counted as one incidence. Compound Treatment Compound (IA-a-5), suspended in 0.5% methylcellulose, was orally administered 1 hour before the injection of compound 48/80 at a dose of 300 mg/kg. As a control, mice were treated with 0.5% methlycellulose. Results were shown in Table 16. *: P<0.05 versus control (Wilcoxon test).

[3] = system: Antigen-induced scratching behavior; assay: Mouse pruritus model: antigen-induced scratching behavior; type: in vivo; conditions: female C57BL mice, observed 15 minutes, n = 7, control 51.6 ± 5.3
Method: Investigation on Itch-Related Scratching Behavior in Mouse Pruritus Model: Effect on Antigen-Induced Scratching Behavior 50 μl of diluted anti-benzylpenicilloyl (BPO) IgE monoclonal antibody was intradermally injected to the rostral part of the back skin of female C57BL (Table 17, 8-12 weeks of age, Charles River Japan Inc.) or male DS-Nh (Table 18, 7-8 weeks of age, Aburahi Laboratories, Shionogi & Co., Ltd.) mice. Twenty-four hours later, scratching behavior was induced by intravenously injection of physiological saline containing 1 mg of BPO-guinea pig serum albumin. […] In Table 17, the compound was treated in the same manner described in above 1). In Table 18, the compound were dissolved in physiological saline and intraperitoneally injected 30 minutes before antigen challenge. *: P<0.05, **: P<0.01 versus control (Dunnett's test).

IC50 (PGD2 receptor) | Structure (SMILES) | other results
1.2 nM | CC1(C)[C@H]2C[C@H](C/C=C/CCCC(=O)O)[C@@H](NC(=O)c3csc4ccc(O)cc34)[C@@H]1C2 (single isomer, unassigned) [IA-a-18] | 
 | O=C(O)CCCCCCC1C(=O)N(Cc2ccccc2)C(=O)N1NCC(O)C1CCCCC1 (stereo not drawn) [BWA868C] | inhibition of itching induced by instillation of PGD2 (PGD2-induced itching): inhibited; inhibition of itching caused by antigens [1]: can not inhibit
 | CC1(C)[C@H]2C[C@H](C/C=C\CCCC(=O)O)[C@@H](NC(=O)c3csc4ccc(O)cc34)[C@@H]1C2 [IA-a-5, (5Z)-7-[(1R,2R,3S,5S)-2-(5-hydroxybenzo[b]thiophen-3-yl-carbonylamino)-6,6-dimethylbicyclo[3.1.1]hept-3-yl]-5-heptenoic acid] | scratching caused by skin itching derived from the activation of mast cell, compared with the control group ([2]; Experiment 2, summary in words): reduced; Mean ± S.E. (Number of scratching) ([2]; female C57BL mice, 300 mg/kg orally 1 hour before compound 48/80, observed 30 minutes, n = 10, control 122.2 ± 12.7): 81.8 ± 17.9*; Mean ± S.E. (Number of scratching) ([3]; 100 mg/kg orally): 48.4 ± 12.4; Mean ± S.E. (Number of scratching) ([3]; 300 mg/kg orally): 19.6 ± 6.5*
0.27 nM | CC1(C)[C@H]2C[C@H](C/C=C\CCCC(=O)O)[C@@H](NC(=O)c3csc4ccc(F)cc34)[C@@H]1C2 [IA-a-11] | 
32 nM | CC1(C)[C@H]2C[C@H](C/C=C/CCCC(=O)O)[C@@H](NC(=O)c3csc4ccc(O)cc34)[C@@H]1C2 [IA-a-17, (5E)-7-[(1R,2R,3S,5S)-2-(5-hydroxybenzo[b]thiophen-3-yl-carbonylamino)-6,6-dimethylbicyclo[3.1.1]hept-3-yl]-5-heptenoic Acid] | 
28 nM | CC1(C)[C@H]2C[C@@H](C/C=C\CCCC(=O)O)[C@@H](NC(=O)c3csc4ccc(O)cc34)[C@@H]1C2 [IA-c-1] | 
1 nM | CC1(C)[C@H]2C[C@@H](C/C=C/CCCC(=O)O)[C@@H](NC(=O)c3csc4ccc(O)cc34)[C@@H]1C2 [IA-c-2] | 
37 nM | CC1(C)[C@H]2C[C@H](NC(=O)c3csc4ccc(F)cc34)[C@@H](C/C=C\CCCC(=O)O)[C@@H]1C2 [IB-a′-2] | 
